Article PMC3288262 (Bioorganic & medicinal chemistry letters, 2012)
Values joined by “and” are separate entries in the source; they are usually repeats but may differ in a detail not shown here. Equal values may be shown once. Marks after values point to notes of the source that are not given here. Starred links: 1 amine or outer side, 2 acyl side, 3 side chain; linkers in the order of their positions; H or OH if unused. Non-standard residues stand in square brackets, D forms with d. Residues, ends and D or L forms follow the SMILES beside them. Bcp = 4'-[N-((4'-phenyl)phenethyl)carboxamido]phenylalanine, O=C(NCCc1ccc(-c2ccccc2)cc1)c1ccc(C[C@H](N[*:1])C(=O)[*:2])cc1; Tic = O=C(O)[C@@H]1Cc2ccccc2CN1

What was measured:
[1] = system: μ opioid receptor (guinea pig ileum); assay: guinea pig ileum; conditions: read-out: GPI IC50; agonist potency; P.A. = partial agonist
human δ opioid receptor = human δ opioid receptor (Homo sapiens, UniProt P41143); assay type: biochemical; conditions: mean of 3–6 determinations ± SEM; for [35S]GTPγS binding ED50: HEK293 cells, human δ opioid receptor
Sequence of human δ opioid receptor (P41143 whole entry): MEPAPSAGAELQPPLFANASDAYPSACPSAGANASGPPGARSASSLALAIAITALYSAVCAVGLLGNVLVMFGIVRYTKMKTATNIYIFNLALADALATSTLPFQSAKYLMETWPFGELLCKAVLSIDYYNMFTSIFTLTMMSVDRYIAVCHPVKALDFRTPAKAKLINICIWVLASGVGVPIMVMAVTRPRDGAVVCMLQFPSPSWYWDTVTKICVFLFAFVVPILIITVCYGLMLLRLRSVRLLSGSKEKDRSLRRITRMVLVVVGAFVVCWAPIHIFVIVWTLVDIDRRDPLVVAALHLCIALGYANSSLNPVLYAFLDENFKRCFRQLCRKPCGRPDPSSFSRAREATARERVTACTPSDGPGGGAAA

δ opioid receptors = δ opioid receptors (Rattus norvegicus, UniProt P33533); conditions: ref [10], cited from earlier work
Sequence of δ opioid receptors (P33533 whole entry): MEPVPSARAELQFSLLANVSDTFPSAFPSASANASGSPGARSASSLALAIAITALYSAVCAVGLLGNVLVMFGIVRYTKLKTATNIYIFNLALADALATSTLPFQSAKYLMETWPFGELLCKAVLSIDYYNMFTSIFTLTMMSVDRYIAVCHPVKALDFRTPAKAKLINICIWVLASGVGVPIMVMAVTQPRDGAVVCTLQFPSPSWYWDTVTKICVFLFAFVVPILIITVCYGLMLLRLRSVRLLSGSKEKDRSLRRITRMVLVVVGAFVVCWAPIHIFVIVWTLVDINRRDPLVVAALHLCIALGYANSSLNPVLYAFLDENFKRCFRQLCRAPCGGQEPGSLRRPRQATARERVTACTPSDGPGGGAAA

μ opioid receptors = μ opioid receptors (Rattus norvegicus, UniProt P33535); conditions: read-out: Ki^μ; [3H]DAMGO displacement, rat brain membranes; ref [10]; cited from earlier work
Sequence of μ opioid receptors (P33535 whole entry): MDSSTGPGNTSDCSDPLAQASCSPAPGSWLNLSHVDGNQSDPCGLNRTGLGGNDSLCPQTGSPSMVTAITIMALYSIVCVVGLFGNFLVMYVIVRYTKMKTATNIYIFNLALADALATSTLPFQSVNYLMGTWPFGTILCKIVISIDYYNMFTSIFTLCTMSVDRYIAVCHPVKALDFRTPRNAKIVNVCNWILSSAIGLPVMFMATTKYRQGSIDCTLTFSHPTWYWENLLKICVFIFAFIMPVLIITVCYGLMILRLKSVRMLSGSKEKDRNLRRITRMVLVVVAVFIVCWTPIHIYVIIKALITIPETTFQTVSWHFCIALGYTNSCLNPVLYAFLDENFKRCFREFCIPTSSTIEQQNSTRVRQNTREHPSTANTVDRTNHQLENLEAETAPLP

[2] = target: δ opioid receptor (mouse vas deferens, δ receptor-representative) (Mus musculus, UniProt P32300); conditions: read-out: MVD IC50; agonist potency; ref [10]; cited from earlier work
Sequence of δ opioid receptor (mouse vas deferens, δ receptor-representative) (P32300 whole entry): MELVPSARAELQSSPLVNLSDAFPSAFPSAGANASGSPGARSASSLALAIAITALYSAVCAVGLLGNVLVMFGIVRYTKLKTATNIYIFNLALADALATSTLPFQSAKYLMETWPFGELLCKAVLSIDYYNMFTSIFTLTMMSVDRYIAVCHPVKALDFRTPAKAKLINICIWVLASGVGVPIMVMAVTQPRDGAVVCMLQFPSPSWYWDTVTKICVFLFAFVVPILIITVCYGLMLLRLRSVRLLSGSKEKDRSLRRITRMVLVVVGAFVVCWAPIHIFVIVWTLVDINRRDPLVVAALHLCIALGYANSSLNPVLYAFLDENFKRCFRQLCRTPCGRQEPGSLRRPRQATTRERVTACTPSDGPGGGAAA

[3] = system: μ opioid receptor (guinea pig ileum); conditions: partial agonist, IC40 given in IC50 column; ref [10]; cited from earlier work

Row | Compound | IC50 [1] | [35S]GTPγS binding ED50 (human δ opioid receptor) | Ki (δ opioid receptors; read-out: Ki^δ, [3H]DSLET displacement, rat brain membranes) | Ki (μ opioid receptors) | IC50 [2] | [35S]GTPγS binding efficacy e (human δ opioid receptor; efficacy relative to DPDPE (e = 1.0)) | Ki^μ/Ki^δ (δ opioid receptors; δ vs. μ receptor binding selectivity) | GPI IC40 [3]
1 | N[C@@H](Cc1ccc(O)cc1)C(=O)N1Cc2ccccc2C[C@H]1C(=O)N[C@@H](Cc1ccccc1)C(=O)N[C@@H](Cc1ccccc1)C(=O)O [TIPP, H-Tyr-Tic-Phe-Phe-OH, reference compound] (H-Y[Tic]FF-OH) | > 10000 nM | antagonist |  |  |  |  |  | 
2 | H-Bcp-Tic-Phe-Phe-OH (H-[Bcp][Tic]FF-OH) [Compound 13] |  |  | 0.605 ± 0.058 nM | 87.7 ± 8 nM | 3.42 ± 0.36 nM |  |  | 
3 | H-Bcp-Tic-Phe-Phe-OH [Compound 13] |  | 0.413 ± 0.015 nM |  |  |  | 0.678 and 0.678 ± 0.076 | 145 | 223 ± 37 (IC40) ^d nM
